The format of data set [1] is in vivo, human. The note with it: seven days, compared with expt #1 and #2.
A further data set deals with IgE. The data set is classed as in vivo, human. Particulars: for IgE levels in saliva: ELISA titer, Normal 16200, Glucotrol 15 mg/day, LT-10 2 mg/day or both.
The subject of the next data set is NGF. The data set is classed as in vivo, human. Particulars: for NGF levels in saliva: ELISA titer, Normal 1200, Glucotrol 15 mg/day, LT-10 2 mg/day or both. (In an ELISA, binding on a coated surface is turned into a signal by an enzyme label.)
For another data set, the system named is Insulin. The data set is classed as in vivo, human. Further details: Insulin levels in saliva: unit not given here. Particulars: for Insulin levels in saliva: ELISA titer, Normal 600, Glucotrol 15 mg/day, LT-10 2 mg/day or both.
The subject of the next data set is Myoglobin. The data set is classed as in vivo, human. The note with it: for Myoglobin levels in saliva: ELISA titer, Normal 1800, Glucotrol 15 mg/day, LT-10 2 mg/day or both.
For data set [2] the following is noted: in vivo.

The source of these data is patent publication US20080081788A1, “Diagnosis and treatment for immunoglobulin E (IgE) implicated disorders” (priority 2002, published 2008).

Like-named read-outs stand apart in the source and are kept apart here. Ends that are not written are not given here.

With `Cc1cnc(C(=O)NCCc2ccc(S(=O)(=O)NC(=O)NC3CCCCC3)cc2)cn1` [Glucotrol], the “effect on glucose level, in words” value in data set [1] is listed as “did not make appreciable difference”. Besides, the “IgE levels in saliva” value stood at 145800 in the data set on IgE (Day 1); 148600 in the data set on IgE (Day 2); 145800 in the data set on IgE (Day 3); 148600 in the data set on IgE (Day 4); 148600 with IgE (Day 5); 145800 in the data set with IgE (Day 6). Moreover, the “IgE levels in saliva” value with IgE (Day 7) was found to be 145800. The “effect on IgE levels in saliva, in words” value in the data set on IgE (treatment for seven days) is recorded as “does not contribute in lowering IgE levels”. The “NGF levels in saliva” value in the data set with NGF (Day 1) amounted to 2700; in the data set with NGF (Day 2), 8100; in the data set on NGF (Day 3), 5400; in the data set with NGF (Day 4), 5400; with NGF (Day 5), 2700; in the data set with NGF (Day 6), 2700. In the data set with NGF (Day 7), the “NGF levels in saliva” value is given as 5400. Moreover, the “effect on NGF levels in saliva, in words” value in the data set with NGF (treatment for seven days) was “perhaps increases NGF levels”. The “Insulin levels in saliva” value with Insulin (Day 1) stood at 1200; in the data set with Insulin (Day 2), 800; with Insulin (Day 3) it was 800; in the data set with Insulin (Day 4) it was 900; with Insulin (Day 5) it was 750; with Insulin (Day 6) it was 800. Also, the “Insulin levels in saliva” value with Insulin (Day 7) amounted to 900. In the data set with Insulin (treatment for seven days), the “effect on Insulin levels in saliva, in words” value was “contributes m lowering Insulin levels”. Moreover, the “Myoglobin levels in saliva” value is listed as 1800 in the data set with Myoglobin (Day 1); 3600 in the data set with Myoglobin (Day 2); 3600 in the data set with Myoglobin (Day 3); 2700 with Myoglobin (Day 4); 2700 in the data set on Myoglobin (Day 5); 2700 in the data set with Myoglobin (Day 6). Further, the “Myoglobin levels in saliva” value with Myoglobin (Day 7) worked out at 3500. Also, the “myoglobin level at completion point (FIG. 1)” value in the data set with Myoglobin (end of seven days, times the normal level) is “increased the level of myoglobin”. The “effect on myoglobin levels in saliva, in words” value in the data set with Myoglobin (treatment for seven days) was “contributes in increasing myoglobin levels”.
In the case of LKAMDPTPPL [LT-10], the side effects result in data set [2] is “no observable side effects”.
